Experimental data as given in patent US8809367B2, “1-1-Oxo-1,2,3,4-tetrahydroisoquinolin-7-yl)urea derivatives as N-formyl peptide receptor like-1 (FPRL-1) receptor modulators” (Allergan, Inc., priority 2011, dated 2014).

Target: T1, FPRL-1 (Homo sapiens, UniProt P25090)
T1 construct: expressed in transfected cells
T1 sequence (P25090 1-351): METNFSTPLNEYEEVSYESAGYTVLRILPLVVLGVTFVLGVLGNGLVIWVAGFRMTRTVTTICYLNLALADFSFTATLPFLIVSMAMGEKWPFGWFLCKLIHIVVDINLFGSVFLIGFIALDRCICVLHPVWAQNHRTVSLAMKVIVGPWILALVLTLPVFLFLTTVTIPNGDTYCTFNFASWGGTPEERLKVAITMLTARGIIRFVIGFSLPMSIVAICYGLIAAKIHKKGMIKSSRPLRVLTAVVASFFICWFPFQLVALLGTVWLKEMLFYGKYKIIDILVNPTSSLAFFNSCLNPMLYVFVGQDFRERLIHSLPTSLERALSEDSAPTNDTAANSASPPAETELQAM
Experiment: compound-induced calcium activity on FLIPR Tetra in CHO-Ga16 cells stably expressing FPRL1
Format: cell-based
Conditions: for FPRL-1 Ga16-CHO (eff): efficacy value in brackets under EC50; for EC50: tested at 0.61 to 10,000 nM
Description: CHO-Ga16 cells stably expressing FPRL1 were cultured in (F12, 10% FBS, 1% PSA, 400 μg/ml geneticin and 50 μg/ml hygromycin) and HEK-Gqi5 cells stable expressing FPR1 were cultured in (DMEM high glucose, 10% FBS, 1% PSA, 400 μg/ml geneticin and 50 μg/ml hygromycin). In general, the day before the experiment, 18,000 cells/well were plated in a 384-well clear bottom poly-d-lysine coated plate. The following day the screening compound-induced calcium activity was assayed on the FLIPR^Tetra. The drug plates were prepared in 384-well microplates using the EP3 and the MultiPROBE robotic liquid handling systems. Compounds were tested at concentrations ranging from 0.61 to 10,000 nM. Results are expressed as EC50 (nM) and efficacy values.

| SMILES | FPRL-1 Ga16-CHO (eff) | EC50 |
| --- | --- | --- |
| C[S+]([O-])c1ccc(NC(=O)Nc2ccc3c(c2)C(=O)N(CCCN)C(c2ccc(C#N)cc2)C3)cc1 (stereo not drawn) [Compound 7, 1-[2-(3-aminopropyl)-3-(4-cyanophenyl)-1-oxo-1,2,3,4-tetrahydroisoquinolin-7-yl]-3-[4-(methylsulfinyl)phenyl]urea] | (0.92) | – |
| N#Cc1ccc(C2Cc3ccc(NC(=O)Nc4ccc(C(F)(F)F)cc4)cc3C(=O)N2CCCN)cc1 (stereo not drawn) [Compound 4, 1-[2-(3-aminopropyl)-3-(4-cyanophenyl)-1-oxo-1,2,3,4-tetrahydroisoquinolin-7-yl]-3-[4-(trifluoromethyl)phenyl]urea] | (0.78) | 21 nM |
| CC(=O)c1ccc(NC(=O)Nc2ccc3c(c2)C(=O)N(CCN)C(c2ccc(C#N)cc2)C3)cc1 (stereo not drawn) [Compound 2, 1-(4-acetylphenyl)-3-[2-(2-aminoethyl)-3-(4-cyanophenyl)-1-oxo-1,2,3,4-tetrahydroisoquinolin-7-yl]urea] | (0.90) | 34 nM |
| CSc1ccc(NC(=O)Nc2ccc3c(c2)C(=O)N(CCc2c[nH]cn2)C(c2ccco2)C3)cc1 (stereo not drawn) [Compound 23, 1-{3-(2-furyl)-2-[2-(1H-imidazol-4-yl)ethyl]-1-oxo-1,2,3,4-tetrahydroisoquinolin-7-yl}-3-[4-(methylthio)phenyl]urea] | (0.83) | 19 nM |
| CCSc1ccc(NC(=O)Nc2ccc3c(c2)C(=O)N(CCCN)C(c2ccc(C#N)cc2)C3)cc1 (stereo not drawn) [Compound 9, 1-[2-(3-aminopropyl)-3-(4-cyanophenyl)-1-oxo-1,2,3,4-tetrahydroisoquinolin-7-yl]-3-[4-(ethylthio)phenyl]urea] | (1.0) | 23 nM |
| CSc1ccc(NC(=O)Nc2ccc3c(c2)C(=O)N(CCc2c[nH]cn2)C(c2ccc(Cl)nc2)C3)cc1 (stereo not drawn) [Compound 26, 1-{3-(6-chloropyridin-3-yl)-2-[2-(1H-imidazol-4-yl)ethyl]-1-oxo-1,2,3,4-tetrahydroisoquinolin-7-yl}-3-[4-(methylthio)phenyl]urea] | (0.89) | 6.3 nM |
| CC(=O)c1ccc(NC(=O)Nc2ccc3c(c2)C(=O)N(CCCN)C(c2ccc(C#N)cc2)C3)cc1 (stereo not drawn) [Compound 1, 1-(4-acetylphenyl)-3-[2-(3-aminopropyl)-3-(4-cyanophenyl)-1-oxo-1,2,3,4-tetrahydroisoquinolin-7-yl]urea] | (1.00) | 40 nM |
| CNCCN1C(=O)c2cc(NC(=O)Nc3ccc(C(C)=O)cc3)ccc2CC1c1ccc(C#N)cc1 (stereo not drawn) [Compound 3, 1-(4-acetylphenyl)-3-{3-(4-cyanophenyl)-2-[2-(methylamino)ethyl]-1-oxo-1,2,3,4-tetrahydroisoquinolin-7-yl}urea] | (1.00) | 32 nM |
| CS(=O)(=O)c1ccc(NC(=O)Nc2ccc3c(c2)C(=O)N(CCc2c[nH]cn2)C(c2ccc(F)cn2)C3)cc1 (stereo not drawn) [Compound 32, 1-{3-(5-fluoropyridin-2-yl)-2-[2-(1H-imidazol-4-yl)ethyl]-1-oxo-1,2,3,4-tetrahydroisoquinolin-7-yl}-3-[4-(methylsulfonyl)phenyl]urea] | (1.0) | 10.5 nM |
| CS(=O)(=O)c1ccc(NC(=O)Nc2ccc3c(c2)C(=O)N(CCCN)C(c2ccc(C#N)cc2)C3)cc1 (stereo not drawn) [Compound 8, 1-[2-(3-aminopropyl)-3-(4-cyanophenyl)-1-oxo-1,2,3,4-tetrahydroisoquinolin-7-yl]-3-[4-(methylsulfonyl)phenyl]urea] | (0.86) | 10 nM |
| N#Cc1ccc(C2Cc3ccc(NC(=O)Nc4ccc(Br)cc4)cc3C(=O)N2CCCN)cc1 (stereo not drawn) [Compound 6, 1-[2-(3-aminopropyl)-3-(4-cyanophenyl)-1-oxo-1,2,3,4-tetrahydroisoquinolin-7-yl]-3-(4-bromophenyl)urea] | (1.00) | 31 nM |
| CS(=O)(=O)c1ccc(NC(=O)Nc2ccc3c(c2)C(=O)N(CCc2c[nH]cn2)C(c2ccc(C#N)cc2)C3)cc1 (stereo not drawn) [Compound 30, 1-{3-(4-cyanophenyl)-2-[2-(1H-imidazol-4-yl)ethyl]-1-oxo-1,2,3,4-tetrahydroisoquinolin-7-yl}-3-[4-(methylsulfonyl)phenyl]urea] | (1.00) | 20 nM |
| CSc1ccc(NC(=O)Nc2ccc3c(c2)C(=O)N(CCCN)[C@@H](c2ccc(C#N)cc2)C3)cc1 [Compound 11, (R)-1-[2-(3-aminopropyl)-3-(4-cyanophenyl)-1-oxo-1,2,3,4-tetrahydroisoquinolin-7-yl]-3-[4-(methylthio)phenyl]urea] | (0.97) | 3.3 nM |
| CS(=O)(=O)c1ccc(NC(=O)Nc2ccc3c(c2)C(=O)N(CCCN)[C@@H](c2ccc(C#N)cc2)C3)cc1 [Compound 15, (R)-1-[2-(3-aminopropyl)-3-(4-cyanophenyl)-1-oxo-1,2,3,4-tetrahydroisoquinolin-7-yl]-3-[4-(methylsulfonyl)phenyl]urea] | (0.90) | 29 nM |
| CSc1ccc(NC(=O)Nc2ccc3c(c2)C(=O)N(CCc2c[nH]cn2)C(c2ccc(Cl)o2)C3)cc1 (stereo not drawn) [Compound 24, 1-{3-(5-chloro-2-furyl)-2-[2-(1H-imidazol-4-yl)ethyl]-1-oxo-1,2,3,4-tetrahydroisoquinolin-7-yl}-3-[4-(methylthio)phenyl]urea] | (0.81) | 17 nM |
| N#Cc1ccc(C2Cc3ccc(NC(=O)Nc4ccc(C(F)(F)F)cc4)cc3C(=O)N2CCc2c[nH]cn2)cc1 (stereo not drawn) [Compound 19, 1-{3-(4-cyanophenyl)-2-[2-(1H-imidazol-4-yl)ethyl]-1-oxo-1,2,3,4-tetrahydroisoquinolin-7-yl}-3-[4-(trifluoromethyl)phenyl]urea] | (0.78) | 32 nM |
| CSc1ccc(NC(=O)Nc2ccc3c(c2)C(=O)N(CCc2c[nH]cn2)C(c2ccc(Cl)cn2)C3)cc1 (stereo not drawn) [Compound 28, 1-{3-(5-chloropyridin-2-yl)-2-[2-(1H-imidazol-4-yl)ethyl]-1-oxo-1,2,3,4-tetrahydroisoquinolin-7-yl}-3-[4-(methylthio)phenyl]urea] | (0.91) | 13.5 nM |
| CC(=O)c1ccc(NC(=O)Nc2ccc3c(c2)C(=O)N(CCc2c[nH]cn2)C(c2ccc(Cl)nc2)C3)cc1 (stereo not drawn) [Compound 25, 1-(4-acetylphenyl)-3-{3-(6-chloropyridin-3-yl)-2-[2-(1H-imidazol-4-yl)ethyl]-1-oxo-1,2,3,4-tetrahydroisoquinolin-7-yl}urea] | (0.81) | 24 nM |
| CS(=O)(=O)c1ccc(NC(=O)Nc2ccc3c(c2)C(=O)N(CCc2c[nH]cn2)C(c2ccc(Cl)cn2)C3)cc1 (stereo not drawn) [Compound 34, 1-{3-(5-chloropyridin-2-yl)-2-[2-(1H-imidazol-4-yl)ethyl]-1-oxo-1,2,3,4-tetrahydroisoquinolin-7-yl}-3-[4-(methylsulfonyl)phenyl]urea] | (0.99) | 9.5 nM |
| C[S+]([O-])c1ccc(NC(=O)Nc2ccc3c(c2)C(=O)N(CCc2c[nH]cn2)C(c2ccc(C#N)cc2)C3)cc1 (stereo not drawn) [Compound 29, 1-{3-(4-cyanophenyl)-2-[2-(1H-imidazol-4-yl)ethyl]-1-oxo-1,2,3,4-tetrahydroisoquinolin-7-yl}-3-[4-(methylsulfinyl)phenyl]urea] | (0.96) | 22 nM |
| CSc1ccc(NC(=O)Nc2ccc3c(c2)C(=O)N(CCCN)[C@H](c2ccc(C#N)cc2)C3)cc1 [Compound 10, (S)-1-[2-(3-aminopropyl)-3-(4-cyanophenyl)-1-oxo-1,2,3,4-tetrahydroisoquinolin-7-yl]-3-[4-(methylthio)phenyl]urea] | (1.0) | 299 nM |
| CC1Cc2ccc(NC(=O)Nc3ccc(S(C)(=O)=O)cc3)cc2C(=O)N1CCCN (stereo not drawn) [Compound 17, 1-[2-(3-aminopropyl)-3-methyl-1-oxo-1,2,3,4-tetrahydroisoquinolin-7-yl]-3-[4-(methylsulfonyl)phenyl]urea] | (88) | 150 nM |
| CSc1ccc(NC(=O)Nc2ccc3c(c2)C(=O)N(CCCN)C(C)C3)cc1 (stereo not drawn) [Compound 16, 1-[2-(3-aminopropyl)-3-methyl-1-oxo-1,2,3,4-tetrahydroisoquinolin-7-yl]-3-[4-(methylthio)phenyl]urea] | (0.89) | 15 nM |
| CC(=O)c1ccc(NC(=O)Nc2ccc3c(c2)C(=O)N(CCc2c[nH]cn2)C(c2ccc(Cl)c(Cl)c2)C3)cc1 (stereo not drawn) [Compound 20, 1-(4-acetylphenyl)-3-{3-(3,4-dichlorophenyl)-2-[2-(1H-imidazol-4-yl)ethyl]-1-oxo-1,2,3,4-tetrahydroisoquinolin-7-yl}urea] | (1.04) | 28 nM |
| CS(=O)(=O)c1ccc(NC(=O)Nc2ccc3c(c2)C(=O)N(CCCN)[C@H](c2ccc(C#N)cc2)C3)cc1 [Compound 14, (S)-1-[2-(3-aminopropyl)-3-(4-cyanophenyl)-1-oxo-1,2,3,4-tetrahydroisoquinolin-7-yl]-3-[4-(methylsulfonyl)phenyl]urea] | (1.3) | – |
